“And” between values parts separate entries of the source, which are not always exact repeats. Equal entries are not always repeated.
How the values were obtained:
[1] = tested on: phospho-ERK in A549 (KRAS G12S) cells; test: Cell-based pERK (pERK:tERK) in A549 cells; settings: for A549-pERK (10 nM, 2 h): phospho- to total protein ratio normalized to DMSO control (Table 9)
Description: Media components, reagents and buffers for Western Blot: All cell culture media components were obtained from ThermoFisher Scientific. […] Laemmli sample loading 4× buffer (ThermoFisher Scientific, Cat No. NP0007). MOPS/SDS electrophoresis running buffer (GenScript, Cat No. M00138).
Subculture conditions: Adherent cells were grown to approximately 90% confluency, culture medium was aspirated and the cell layer was rinsed with PBS. […] Eight mL media was added, cells were spun down at 1000×g for 5 minutes. Cell pellet was re-suspended in 10 mL media and an appropriate volume was inoculated into a new culture flask.
Compound (drug) treatment: Cells were plated in a 6-well plate at a density of 250,000-300,000 cells/well in 3 mL media and incubated 37° C. in a humidified, 5% CO2 incubator. […] These solutions were added to the cells (3 uL/well), mixed by swirling the plate, and incubated at 37° C. in a humidified, 5% CO2 incubator for 2 hours.
Cell lysis and protein estimation: Cells were washed with PBS, and scraped in 50 μL of lysis buffer containing protease and phosphatase inhibitors. Cell lysates were stored at −20° C. Cell lysates were thawed and spun at 12,000 rpm for one minute, 3 ul of the supernatant was added to 500 μL of Coomassie blue reagent following by 500 μL of water. […] Protein standards were used (0-20 mg/mL) to calculate protein concentrations of test samples.
All samples were heated at 95° C. for 5 minutes, cooled to room temperature and spun down. […] After the run, gel was removed and protein transfer was done using iBlot for 7 minutes, as per manufacturer's recommendations. After the transfer, nitrocellulose membrane was incubated on a shaker in 5 mL of blocking buffer at room temperature for 1 hr. The blot was then incubated overnight on a shaker in 5 ml of blocking buffer containing 0.2% Tween-20 and primary antibody, at room temperature. Anti-phospho-STAT3 antibody was used at a dilution of 1:500, the other 3 primary antibodies were used at a dilution of 1:1000.
Next day, the blot was washed 3 times for 10 min each with 10 mL of TBST followed by incubation on a shaker in 5 ml of blocking buffer containing 0.2% Tween-20 and 0.5 ul of the IRDye labeled secondary antibodies, diluted 1:10000, at room temperature for 1 hr. The blot was then washed 3 times for 10 min each with 10 mL of TBST and dried between sheets of paper towels. Imaging was done using LICOR's Odyssey imaging system, quantitation was done using their software, Image Studio version 3.1.
(§1) Materials and Methods: A549 or A375 cells were seeded in 6-well plates at an appropriate seeding density on day 0. On day 2 or 3, after checking the health and confluency of cells, the media was aspirated and replaced with 1 mL media containing a predetermined concentration of compound and incubated for 2 hours. After 2 hours, the media was aspirated, and the cells washed 2 times with cold PBS. Cells were lysed on ice, with 50 uL 1×CST lysis buffer +1 mM PMSF for 5 minutes. After 5 minutes, cells were removed using a scraper and transferred to cold 1.5 mL tubes, and centrifuged for 10 min, 4° C., 14,000×g. Supernatant was gently removed and snap frozen in liquid nitrogen. Protein concentration of the lysate was determined using Bradford Reagent (analyzed using SpectraMax M2E) and diluted to 1 mg/mL or pERK or 1.5 mg/mL for pMEK analysis. […] All dilutions were in Milk-free antibody diluent.
They were grown in T75 flasks in DMEM containing 10% FBS and Pen-Strep. at 37° C. in a humidified, 5% CO2 incubator. The adherent cells were grown to about 90% confluency, culture medium was aspirated, and the cell layer was rinsed with PBS. […] Eight mL media was added, cells were spun down at 1000 g for 5 minutes. Cell pellet was re-suspended in 10 mL media and an appropriate volume was inoculated into a new culture flask. Cells were plated in a 6-well plate at a density of 250,000-300,000 cells/well in 3 mL media and incubated 37° C. in a humidified, 5% CO2 incubator.

[2] = tested on: phospho-MEK in A549 cells; test: Cell-based pMEK (pMEK:tMEK, CRAF bypass) in A549 cells; settings: 2 h, pMEK to total MEK normalized to DMSO control
Description: as §1
(§2) A549 or […] cells were treated in duplicate for two hours with compounds at varying concentrations. After two hours, the cells were lysed, snap frozen, and stored at −80° C. After storage, the lysate was quantified with the Bradford assay. Before the lysates were prepared to run on the Jess, the lysates were diluted to 1 mg/mL for pERK analysis and 1.5 mg/mL pMEK analysis using quantitative Western blotting. ERK and MEK phosphorylation levels were estimated by taking the ratio of phospho-protein to total protein and normalizing to the DMSO control.
as §2

CNS(=O)(=O)Nc1cccc(Cc2c(CN3CCNCC3)c3cc(Cl)c(OC(=O)N(C)C)cc3oc2=O)c1F [Compound 21]
A549-pERK (10 nM, 2 h) [1]: 20.4
A549-CRAF BP 100 nM, 2 h [2]: 47.9 (mean, n = 2)

Cc1c(Cc2ccnc(NS(=O)(=O)C(C)C)c2F)c(=O)oc2cc(OC(=O)N(C)C)ccc12 [Compound 114]
A549-pERK (10 nM, 2 h) [1]: 36.6
A549-CRAF BP 100 nM, 2 h [2]: 59.9 (mean, n = 3)

Cc1c(Cc2ccnc(NS(=O)(=O)C3CC3)c2F)c(=O)oc2cc(OC(=O)N(C)C)ccc12 [Compound 112]
A549-pERK (10 nM, 2 h) [1]: 46.3
A549-CRAF BP 100 nM, 2 h [2]: 52.9 (mean, n = 2)

CCS(=O)(=O)Nc1nccc(Cc2c(C)c3ccc(OC(=O)N(C)C)cc3oc2=O)c1F [Compound 119]
A549-pERK (10 nM, 2 h) [1]: 64.8
A549-CRAF BP 100 nM, 2 h [2]: 66.1

Cc1c(Cc2cccc(NS(=O)(=O)C3CC3)c2F)c(=O)oc2cc(OC(=O)N(C)C)ccc12 [Compound 113]
A549-pERK (10 nM, 2 h) [1]: 24.7
A549-CRAF BP 100 nM, 2 h [2]: 48.0 (mean, n = 2)

CNS(=O)(=O)Nc1cccc(Cc2c(C)c3cc(C)c(OC(=O)N(C)C)cc3oc2=O)c1F [Compound 108]
A549-pERK (10 nM, 2 h) [1]: 5.78
A549-CRAF BP 100 nM, 2 h [2]: 47.9 (mean, n = 2)

CCS(=O)(=O)Nc1cccc(Cc2c(CN(C)C)c3cc(Cl)c(OC(=O)N(C)C)cc3oc2=O)c1F [Compound 132]
A549-pERK (10 nM, 2 h) [1]: 62.6
A549-CRAF BP 100 nM, 2 h [2]: 57.8

CNS(=O)(=O)Nc1cccc(Cc2c(CN(C)C3CCC3)c3ccc(OC(=O)N(C)C)cc3oc2=O)c1F [Compound 86]
A549-pERK (10 nM, 2 h) [1]: 96.4
A549-CRAF BP 100 nM, 2 h [2]: 53.2

CNS(=O)(=O)Nc1cccc(Cc2c(CN(C)CC(C)C)c3ccc(OC(=O)N(C)C)cc3oc2=O)c1F [Compound 78]
A549-pERK (10 nM, 2 h) [1]: 78.6
A549-CRAF BP 100 nM, 2 h [2]: 64.2

CNS(=O)(=O)Nc1cccc(Cc2c(C)c3cc(Cl)c(OC(=O)N(C)C)cc3oc2=O)c1F [Compound 109]
A549-pERK (10 nM, 2 h) [1]: 4.51
A549-CRAF BP 100 nM, 2 h [2]: 41.9 (mean, n = 2)

CNS(=O)(=O)Nc1cccc(Cc2c(CN(C)C3CC3)c3ccc(OC(=O)N(C)C)cc3oc2=O)c1F [Compound 82]
A549-pERK (10 nM, 2 h) [1]: 64.9
A549-CRAF BP 100 nM, 2 h [2]: 72.3

CNS(=O)(=O)Nc1cccc(Cc2c(CN(C)C)c3ccc(OC(=O)N4CCC4)cc3oc2=O)c1F [Compound 128]
A549-pERK (10 nM, 2 h) [1]: 66.3
A549-CRAF BP 100 nM, 2 h [2]: 37.7

CCS(=O)(=O)Nc1cccc(Cc2c(CN3CCNCC3)c3cc(Cl)c(OC(=O)N(C)C)cc3oc2=O)c1F [Compound 147]
A549-pERK (10 nM, 2 h) [1]: 21.7
pERK:tERK (10 nM 2 h A549) ([1]; Phospho-ERK Screen in A549 (KRAS G12S), head 10 nM 2 h, title 10 μM for 2 hours): 28 (n = 2)
A549-CRAF BP 100 nM, 2 h [2]: 46.4

Cc1c(Cc2cccc(NS(=O)(=O)C3CCC3)c2F)c(=O)oc2cc(OC(=O)N(C)C)ccc12 [Compound 118]
A549-pERK (10 nM, 2 h) [1]: 21.1
A549-CRAF BP 100 nM, 2 h [2]: 39.1 (mean, n = 2)

CCCN(C)Cc1c(Cc2cccc(NS(=O)(=O)NC)c2F)c(=O)oc2cc(OC(=O)N(C)C)ccc12 [Compound 81]
A549-pERK (10 nM, 2 h) [1]: 57.6
A549-CRAF BP 100 nM, 2 h [2]: 78.3

CNS(=O)(=O)Nc1nccc(Cc2c(C)c3cc(Cl)c(OC(=O)N(C)C)cc3oc2=O)c1F [Compound 111]
A549-pERK (10 nM, 2 h) [1]: 4.63
A549-CRAF BP 100 nM, 2 h [2]: 48.6 (mean, n = 2)

CCN(CC)Cc1c(Cc2cccc(NS(=O)(=O)NC)c2F)c(=O)oc2cc(OC(=O)N(C)C)ccc12 [Compound 73]
A549-pERK (10 nM, 2 h) [1]: 77.7
A549-CRAF BP 100 nM, 2 h [2]: 33.9

CNS(=O)(=O)Nc1cccc(Cc2c(CN(C)c3ccccc3)c3ccc(OC(=O)N(C)C)cc3oc2=O)c1F [Compound 79]
A549-pERK (10 nM, 2 h) [1]: 49.4
A549-CRAF BP 100 nM, 2 h [2]: 45.2 and 64.9

C#CCNCc1c(Cc2cccc(NS(=O)(=O)NC)c2F)c(=O)oc2cc(OC(=O)N(C)C)ccc12 [Compound 14]
A549-pERK (10 nM, 2 h) [1]: 64
A549-CRAF BP 100 nM, 2 h [2]: 59.1

Cc1c(Cc2ccnc(NS(=O)(=O)C3CCC3)c2F)c(=O)oc2cc(OC(=O)N(C)C)ccc12 [Compound 125]
A549-pERK (10 nM, 2 h) [1]: 54.4
A549-CRAF BP 100 nM, 2 h [2]: 41.7

CNS(=O)(=O)Nc1nccc(Cc2c(C)c3cc(C)c(OC(=O)N(C)C)cc3oc2=O)c1F [Compound 110]
A549-pERK (10 nM, 2 h) [1]: 5.92
A549-CRAF BP 100 nM, 2 h [2]: 56.6 (mean, n = 2)
